Columns and labels:
Experiment in all cases: relative viability (nuclei count vs DMSO), 5 days (fraction); higher = more cells survive
NCI-H1755 = tested on: NCI-H1755
Outline: (§1)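 Lung cancer cell lines were pin-tool dosed in 1536-well plates on the day after seeding, with either a lone drug or a fixed anchor-drug dose plus five library-drug doses (not always all listed) in √10 steps. Nuclei were counted on 4× images after 5 days. Relative viability is the ratio of treated-well to vehicle-well nuclei counts, with each value a median of duplicate plates.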

NCI-H1666 = tested on: NCI-H1666
Outline: as §1

NCI-H2085 = tested on: NCI-H2085
Outline: as §1

NCI-H358 = tested on: NCI-H358
Outline: as §1

NCI-H3122 = tested on: NCI-H3122
Outline: as §1

ChaGo-K-1 = tested on: ChaGo-K-1
Outline: as §1

NCI-H1355 = tested on: NCI-H1355
Outline: as §1

NCI-H441 = tested on: NCI-H441
Outline: as §1

NCI-H2347 = tested on: NCI-H2347
Outline: as §1

NCI-H1944 = tested on: NCI-H1944
Outline: as §1

NCI-H838 = tested on: NCI-H838
Outline: as §1

NCI-H520 = tested on: NCI-H520
Outline: as §1

Work on Cc1cnc(-c2cnc(NCCNc3ccc(C#N)cn3)nc2-c2ccc(Cl)cc2Cl)[nH]1 + N=C(N)NC(=N)NCCc1ccccc1 [Phenformin] (partner 250 µM) yielded a relative viability (NCI-H1755; first compound 0.08 µM) of 0.633, a relative viability (NCI-H1755; first compound 0.253 µM) of 0.604 and a relative viability (NCI-H1755; first compound 0.8 µM) of 0.634. The relative viability (NCI-H1755; first compound 2.53 µM) was 0.572, the relative viability (NCI-H1666; first compound 0.08 µM) was 0.548 and the relative viability (NCI-H1666; first compound 0.253 µM) was 0.563. For the same molecule, the relative viability (NCI-H1666; first compound 0.8 µM) was 0.553, the relative viability (NCI-H1666; first compound 2.53 µM) was 0.572 and the relative viability (NCI-H2085; first compound 0.08 µM) was 0.735. For the same molecule, the relative viability (NCI-H2085; first compound 0.253 µM) was 0.688, the relative viability (NCI-H2085; first compound 0.8 µM) was 0.686 and the relative viability (NCI-H2085; first compound 2.53 µM) was 0.691. It also gave a relative viability (NCI-H358; first compound 0.08 µM) of 0.34, a relative viability (NCI-H358; first compound 0.253 µM) of 0.307 and a relative viability (NCI-H358; first compound 0.8 µM) of 0.336. The relative viability (NCI-H358; first compound 2.53 µM) was 0.299, the relative viability (NCI-H3122; first compound 0.08 µM) was 0.367 and the relative viability (NCI-H3122; first compound 0.8 µM) was 0.383. For the same molecule, the relative viability (NCI-H3122; first compound 2.53 µM) was 0.327, the relative viability (ChaGo-K-1; first compound 0.08 µM) was 0.493 and the relative viability (ChaGo-K-1; first compound 0.253 µM) was 0.375. The relative viability (ChaGo-K-1; first compound 0.8 µM) was 0.44, the relative viability (ChaGo-K-1; first compound 2.53 µM) was 0.413 and the relative viability (NCI-H1355; first compound 0.08 µM) was 0.476. The relative viability (NCI-H1355; first compound 0.253 µM) was 0.45, the relative viability (NCI-H1355; first compound 0.8 µM) was 0.479 and the relative viability (NCI-H1355; first compound 2.53 µM) was 0.446. It also gave a relative viability (NCI-H441; first compound 0.08 µM) of 0.841, a relative viability (NCI-H441; first compound 0.253 µM) of 0.756 and a relative viability (NCI-H441; first compound 0.8 µM) of 0.714. The relative viability (NCI-H441; first compound 2.53 µM) was 0.864, the relative viability (NCI-H2347; first compound 0.08 µM) was 0.425 and the relative viability (NCI-H2347; first compound 0.253 µM) was 0.5. It also gave a relative viability (NCI-H2347; first compound 0.8 µM) of 0.397, a relative viability (NCI-H2347; first compound 2.53 µM) of 0.477 and a relative viability (NCI-H1944; first compound 0.08 µM) of 0.203. For the same molecule, the relative viability (NCI-H1944; first compound 0.8 µM) was 0.221, the relative viability (NCI-H1944; first compound 2.53 µM) was 0.195 and the relative viability (NCI-H838; first compound 0.08 µM) was 0.634. For the same molecule, the relative viability (NCI-H838; first compound 0.253 µM) was 0.601, the relative viability (NCI-H838; first compound 0.8 µM) was 0.594 and the relative viability (NCI-H838; first compound 2.53 µM) was 0.709. For the same molecule, the relative viability (NCI-H520; first compound 0.08 µM) was 0.861, the relative viability (NCI-H520; first compound 0.253 µM) was 0.628 and the relative viability (NCI-H520; first compound 0.8 µM) was 0.542.

— the supplement of paper PMC10307832
